Series [1] has as its system primary human skin fibroblasts. Description: Vitality of primary human fibroblasts (dye exclusion count). It is filed as cell-based. The note with it: 1-50 mM, serum free medium, 24 hours; FIG. 7. Here is the method: An identical number (10^4 cells per well) of primary human skin fibroblasts were inoculated in 24-well plates (Greiner, no. 662160) and were cultured in DMEM (Gibco; no. 41966-092) in the presence of 10% calf serum (Biochrom, S0113/5), 2 mM L-glutamine (Gibco; no. 25030-024), penicillin/streptomycin (100 units penicillin/ml; 100 μg streptomycin/ml, Gibco; no. 15140/122), 5 mg % ascorbic acid (Serva, no. 14030.02) at 37° C., 5% CO2 and 95% humidity. The primary human fibroblasts were prepared according to the instructions of Birkenmeier et al. (1998). After reaching 50% confluency the medium was by fresh serum free medium. Thereafter the following supplements were added to the cells: preparation 1 (equivalent volume of serum free (SF) medium, blank); preparation 2 (1 mM DEL or 1 mM LEL or 1 mM EP); preparation 3 (5 mM DEL or 5 mM LEL or 5 mM EP), preparation 4 (10 mM DEL or 10 mM LEL or 10 mM EP), preparation 5 (20 mM DEL or 20 mM LEL or 20 mM EP), preparation 6 (50 mM DEL or 50 mM LEL or 50 mM EP). The culture was continued at 37° C., 5% CO2 and 95% humidity for 24 hours. Thereafter the supernatants were removed and 100 μl of a 50% […] solution was added to the wells. After washing the cells with medium the unstained and stained cells were counted under the light optical microscope comprising a coordinate plane. Cells stained blue were assessed as avital, unstained cells as vital. The percentage of unstained cells of the total number of cells corresponds to the vitality of the cells.

Series [2] deals with yeast glyoxalase II. The experiment in a line: Enzymatic activity of yeast glyoxalase II (cell free extract, DTNB, 412 nm). The note with it: 0-20 mM; FIG. 4. Type of series: biochemical, Saccharomyces cerevisiae. Here is the method:
Protein concentration of the cell free extract was determined according to the Bradford method (Bradford, 1976).
The activity of the glyoxalase II (Hydroxyacyl glutathione hydrolase, E.C. 3.1.2.6.) was determined according to the instructions of Martins et al. (1999) in 0.1 M MES buffer, pH 6.5, 1.5 mM S-D-lactoyl-glutathione (L7140, Sigma-Aldrich Chemistry GmbH) and 0.75 mM DTNB (Sigma, D8130). After addition of suitable amounts of cell extract and an incubation period of 15 min at 25° C. the formation of glutathione was measured at 412 nm (ε=13.6 mM^−1 cm^−1). The activity of the glyoxalase II (IU) correlates with the amount of enzyme hydrolysing 1 μmol of S-D-lactoyl-glutathion/min.
The influence of ethyl pyruvate on the activity of the enzyme was investigated by adding increasing concentrations of EP (Sigma, No. E4, 780-8; Lot. S18972-513) (0-20 mM) to the measurement reagent.

In series [3] the test system is biofilms (biofilm-forming microorganisms from pipe water). Description: Destruction of biofilms on contaminated silicone surfaces (colony forming units). It is filed as cell-based. The note with it: for Colony forming units derivable from biofilms after treatment: normalized to 1 cm2 inner tube surface. On the procedure:
Biofilms were allowed to generate in a silicon tube system according to Gebel et al. (2005). In short, pipe water from a public water distributor was used as the source of biofilm-forming microorganisms. Water flow was at about 20 l per hour through silicon tubes from two commercial suppliers with inner diameters of 4 mm for 30 days at 25° C. After that the tubes were emptied, sealed at both ends and treated on their outer surface with 0.2% peroxoacetic acid for 1 hour. Tubes were then rinsed with sterile water and afterwards cut into pieces of 5 cm length each using a sterile scalpel. Pieces obtained this way were then dipped into solutions which contained the substance to be tested or respective controls. 25 ml of the test solutions were used in closed Falcon tubes (50 ml). […] Tubes were opened over their full length with scissors and the material deposited at the original inner surfaces of the tubes homogenized in 10 ml of saline (9 g NaCl/l water). Dilutions were made (decimal steps to 10^4) and 0.1 ml of these solutions plated onto test agar plates (1 l contained 0.5 g yeast extract, 0.5 g peptone, 0.5 g casein hydrolysate, 0.5 g starch. 0.3 g potassium hydrogen phosphate, 24 mg magnesium sulphate, 0.3 g sodium pyruvate, 15 g agar). Plates were incubated for seven days at 20° C. Colonies which formed were counted on each plate independent of their appearance and color. […] Two dilutions must be consistent in colony numbers, taken into consideration the respective dilution factors. Numbers were normalized to 1 cm2 of the inner tube surface. Each substance was analysed in duplicates. Biofilms were treated with water (control), ethyl pyruvate […] Numbers are given for each of the different silicon tubes used.

Structures are written as SMILES.

As to `CCOC(=O)C(C)=O` [Ethyl pyruvate], the “Effect on the vitality of primary human fibroblasts” value in series [1] was “not toxic over the concentration range investigated”. In addition, in series [2], the “Influence on the enzymatic activity of yeast glyoxalase II” value is “inhibits the reaction of yeast glyoxalase II in a concentration dependent manner”. The “Colony forming units derivable from biofilms after treatment” value is listed as 4.9 × 10^3 colony forming units in series [3] (10 mM, 30 min, first silicon tube); 5.2 × 10^3 colony forming units in series [3] (10 mM, 30 min, second silicon tube); 1.6 × 10^3 colony forming units in series [3] (10 mM, 120 min, first silicon tube); 1.7 × 10^3 colony forming units in series [3] (10 mM, 120 min, second silicon tube); 4.4 × 10^2 colony forming units in series [3] (25 mM, 30 min, first silicon tube); 4.2 × 10^2 colony forming units in series [3] (25 mM, 30 min, second silicon tube). In addition, the “Colony forming units derivable from biofilms after treatment” value in series [3] (25 mM, 120 min, first silicon tube) is on record as <10^2 colony forming units; in series [3] (25 mM, 120 min, second silicon tube), <10^2 colony forming units. Further, the “number of colony forming units after treatment of biofilm” value in series [3] (25 mM, decreases from about 10^7, Table 5) is < 10^2 colony forming units. Moreover, the “Effectiveness against biofilms compared to peroxoacetic acid” value in series [3] (compared to 0.1% peroxoacetic acid) is given as “even more effective compared to a common disinfectant”.
